Data taken from PubChem BioAssay (NCI).
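Briefly, cells in 96-well plates were exposed to five compound concentrations for 48 h, and endpoints were estimated by linear interpolation. GI50 marks 50% less growth. TGI: total growth inhibition.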

What was measured:
Assay in all cases: DTP human tumour cell line panel, 48 h
[1] = test system: MOLT-4 leukemia
[2] = test system: HCT-15 colon
[3] = test system: UO-31 renal
[4] = test system: KM12 colon
[5] = test system: SN12C renal
[6] = test system: LOX IMVI melanoma
[7] = test system: 786-0 renal
[8] = test system: COLO 205 colon
[9] = test system: U251 CNS
[10] = test system: OVCAR-3 ovarian

Row | SMILES | GI50 [1] [µM] | TGI [1] [µM] | GI50 [2] [µM] | TGI [2] [µM] | GI50 [3] [µM] | TGI [3] [µM] | GI50 [4] [µM] | TGI [4] [µM] | TGI [5] [µM] | GI50 [6] [µM] | TGI [6] [µM] | GI50 [7] [µM] | TGI [7] [µM] | GI50 [8] [µM] | TGI [8] [µM] | GI50 [9] [µM] | TGI [9] [µM] | GI50 [10] [µM] | TGI [10] [µM] | GI50 [5] [µM]
1 | COc1ncc(-c2ccc3nccc(C#CCCCCC(=O)NO)c3c2)cc1NS(=O)(=O)c1ccc(F)cc1F | 0.0622 | 1.42 | 0.15 | 13 | 0.0737 | 4 | 0.18 | 12.1 | 17.5 | 0.0968 | 1.9 | 0.0819 | 3.68 | 0.0897 | 2.18 | 0.128 | 2.67 | 0.0651 | 2.52 | –
2 | O=C(NN1C(=O)CSC1c1c(Cl)cccc1Cl)C(O)c1ccccc1 (centres undefined) | 25 | 80.7 | 30.5 | > 100 | 29.3 | > 100 | 34.2 | > 100 | > 100 | 64.7 | > 100 | 69.3 | > 100 | 34.1 | > 100 | 37.3 | > 100 | 21.3 | 76.6 | 34.9
3 | Nc1cc(N)c2nc(NCCc3ccc(Cl)c(Cl)c3)cnc2c1 | 2.5 | 8.22 | 13.5 | 27.3 | 6.3 | 20.3 | 13 | 30.4 | 23.9 | 12 | 31.1 | 16.5 | 32.9 | 5.6 | 24.3 | 11.7 | 23.9 | 2.05 | 5.3 | 11.7
4 | COc1cc(C(=O)NN=C2c3ccccc3-c3ccccc32)cc(OC)c1OC | 5.12 | > 100 | 2.63 | > 100 | 4.02 | 75.3 | 2.15 | > 100 | 41.2 | 2.78 | 49.4 | 6.86 | 31.3 | 3.49 | 32.1 | 3.3 | 20.3 | 2.33 | 10.6 | 4.48
5 | Nc1nc(N)c2c(n1)CCC(S(=O)(=O)c1ccc3ccccc3c1)C2 (centres undefined) | – | 27.2 | – | > 100 | – | > 75.3 | – | > 100 | > 100 | – | > 100 | – | > 100 | – | 34.5 | – | > 100 | – | > 82.9 | –
6 | O=C(CN1CCN(C(=O)c2ccco2)CC1)Nc1ccc(Cl)cc1C(=O)c1ccccc1Cl | 2.14 | 5.44 | 5.14 | 39.7 | 2.28 | 14.9 | 7.33 | 20.9 | 44.7 | 11.1 | 23.1 | 13.6 | 42.5 | 7.32 | 23.7 | 8 | 23.6 | 5.53 | 17.5 | 14.6
7 | O=C(CCN1CCCN(c2cnc3ccccc3n2)CC1)c1csc2ccccc12 | 26 | 57.9 | 18.9 | 34.8 | 14.8 | 28 | 16 | 29.4 | 44.7 | 17.2 | 31.3 | 18.4 | 32.3 | 17.6 | 33.4 | 17.6 | 31.4 | 18.9 | 32.9 | 21.9
8 | COc1cc(N2CCC(N)CC2)ccc1Nc1ncc(Cl)c(-c2c[nH]c3ccccc23)n1 | 1.4 | 4.86 | 0.323 | 1.96 | 0.339 | 2.12 | 0.302 | 1.14 | 3.76 | 0.226 | 1.58 | 0.546 | 1.95 | 0.0248 | 0.269 | 0.407 | 1.79 | 1.14 | 3.71 | 0.869
9 | O=C(Nc1cccc(-n2cc(-c3ccncc3)c(-c3ccc(Cl)c(O)c3)n2)c1)Nc1ccc(Cl)c(Cl)c1 | 1.38 | > 32.5 | 1.23 | 29.6 | 1.25 | > 32.5 | 1.01 | 4.47 | > 32.5 | 0.939 | 3.57 | 7.22 | > 32.5 | 3.96 | 9.49 | 1.51 | 9.68 | 1.05 | 3.15 | 1.31
10 | CCOc1ccc2c(c1)C(=O)c1c-2n(CCCN=[N+]=[N-])c(=O)c2cc([N+](=O)[O-])ccc12 | 1.96 | 20.8 | 16.9 | > 100 | 2.23 | 11.5 | 23.9 | > 100 | > 100 | 3.02 | > 100 | 4.1 | 22.7 | 54.1 | > 100 | 3.57 | 37.7 | 20 | > 100 | 5.3
11 | Cc1ccccc1-n1c(CCl)nc2ccc(Br)cc2c1=O | – | 73.5 | – | 14.4 | – | 28.2 | – | 26.9 | 16.6 | – | 1.46 | – | 20.6 | – | 26.4 | – | 25.9 | – | 27.5 | –
